Results: the NIST ThermoML archive (doi:10.1016/j.fluid.2011.07.005)
± gives the expanded uncertainty stated by the source.

Tests used:
[1] = 298.15 K; 101.33 kPa; Liquid; Vibrating tube method
[2] = refractive index (Na D-line) (dimensionless); conditions: 298.15 K; 101.33 kPa; Liquid; Standard Abbe refractometry
[3] = refractive index (Na D-line) (dimensionless); xn = mol fraction of the nth substance listed; conditions: 298.15 K, 101.3 kPa, Liquid, Standard Abbe refractometry
[4] = xn = mol fraction of the nth substance listed; conditions: 298.15 K, 101.3 kPa, Liquid, Vibrating tube method

CCCCCCCCCCCCCC[P+](CCCCCC)(CCCCCC)CCCCCC.[Cl-] [trihexyl(tetradecyl)phosphonium chloride]
Conditions	mass density [kg/m3]	refractive index
[1]	891.82 ± 0.24	–
[2]	–	1.48175 ± 0.00039

CCCCCCCCCCCCCC[P+](CCCCCC)(CCCCCC)CCCCCC.[Cl-] [trihexyl(tetradecyl)phosphonium chloride] + CCO
Conditions	mass density, [4] [kg/m3]	refractive index, [3]
x2 = 0.0616	891.17 ± 0.23	1.4814 ± 0.0004
x2 = 0.1053	890.69 ± 0.22	1.4807 ± 0.0004
x2 = 0.2113	889.27 ± 0.21	1.4789 ± 0.0004
x2 = 0.3038	887.74 ± 0.2	1.4764 ± 0.0004
x2 = 0.4034	885.65 ± 0.19	1.4742 ± 0.0004
x2 = 0.499	882.9 ± 0.18	1.4709 ± 0.0004
x2 = 0.6004	878.9 ± 0.18	1.466 ± 0.0004
x2 = 0.7038	872.77 ± 0.17	1.4585 ± 0.0004
x2 = 0.7993	863.65 ± 0.17	1.4473 ± 0.0004
x2 = 0.8999	845.08 ± 0.17	1.425 ± 0.0004
x2 = 0.9497	826.4 ± 0.19	1.4058 ± 0.0004
x2 = 0.9808	805.94 ± 0.21	1.3801 ± 0.0004

CCCCCCCCCCCCCC[P+](CCCCCC)(CCCCCC)CCCCCC.[Cl-] [trihexyl(tetradecyl)phosphonium chloride] + CC(C)OC(C)C
Conditions	mass density, [4] [kg/m3]	refractive index, [3]
x2 = 0.0515	889.99 ± 0.23	1.4808 ± 0.0004
x2 = 0.0994	888.06 ± 0.22	1.4794 ± 0.0004
x2 = 0.2017	883.38 ± 0.21	1.4763 ± 0.0004
x2 = 0.2989	878.11 ± 0.2	1.4726 ± 0.0004
x2 = 0.4018	871.47 ± 0.19	1.4678 ± 0.0004
x2 = 0.4997	863.46 ± 0.19	1.4641 ± 0.0004
x2 = 0.5994	852.63 ± 0.18	1.4553 ± 0.0004
x2 = 0.7017	836.78 ± 0.18	1.4478 ± 0.0004
x2 = 0.8004	814.03 ± 0.18	1.4384 ± 0.0004
x2 = 0.8993	778.62 ± 0.19	1.4076 ± 0.0004
x2 = 0.9491	752.99 ± 0.21	1.3881 ± 0.0004

CC(CC(C)(C)C)CP(=O)([O-])CC(C)CC(C)(C)C.CCCCCCCCCCCCCC[P+](CCCCCC)(CCCCCC)CCCCCC
Conditions	mass density [kg/m3]	refractive index
[1]	886.43 ± 0.24	–
[2]	–	1.47125 ± 0.00039
